Measurements: patent US7601722B2, “Aryl sulfamide derivatives and methods of their use” (Wyeth, priority 2006, dated 2009)
Where a name gives a salt, the structure may show the parent alone.

How the values were obtained:
[1] = Rat Liver Microsomal Stability Assay; type: in vitro ADME; conditions: pH 7.4; rat liver microsomes, 37° C., NADPH, Time 0 and Time 15 min; read-out: RLM stability t1/2
Description: Rat Liver Microsomal Stability Assay:
DMSO stock solutions of test compounds were prepared at 0.5 mM concentration. Diluted solutions of test compounds were prepared by adding 50 uL of each DMSO stock solution to 200 uL of acetonitrile to make 0.1 mM solutions in 20% DMSO/80% acetonitrile. Rat liver microsomal solution was prepared by adding 1.582 mL of concentrated rat liver microsomes (20 mg/mL protein concentration) to 48.291 mL of pre-warmed (to 37° C.) 0.1M potassium phosphate buffer (pH 7.4) containing 127 uL of 0.5 M EDTA to make a 0.6329 mg/mL (protein) microsomal solution. 11.2 uL of each test compound diluted solution was each added directly to 885 uL of rat liver microsomal solution (allowing direct binding of drugs to microsomal proteins and lipids to minimize precipitation and non-specific binding to the plasticware). This solution was mixed and 180 uL was transferred to “Time 0” and “Time 15 min” plates (each in duplicate wells). For the Time 15 min plate, NADPH regenerating agent (45 uL) was added to each well to initiate the reaction, the plate was incubated at 37° C. for 15 min, followed by quenching of the reaction by adding 450 uL of cold acetonitrile to each well. For the Time 0 plate, 450 uL of cold acetonitrile was added to each well, followed by addition of NADPH regenerating agent (45 uL) and no incubation. All of the plates were centrifuged at 3000 rpm for 15 min and the supernatants were transferred to other well plates for analysis by LC-MS.

[2] = molecular target: Dopamine Transporter (hDAT) (Homo sapiens, UniProt Q01959); experiment: Dopamine Transporter (hDAT) Membrane Binding Assay
hNET = hNET (Homo sapiens, UniProt P23975); experiment: hNET binding according to Mahaney et al.; conditions: hNET binding per footnote, printed in the NE uptake column
[3] = molecular target: T1, Cloned Human NE Transporters (Homo sapiens, UniProt P23975); experiment: hNET Assay Procedure Protocol A: inhibition of [3H] NE uptake (MDCK cells) (hNET uptake); type: cell-based; conditions: MDCK cells expressing hNET, [3H] NE 16 nM
T1 construct: expressed in transfected cells; host or cells: MDCK
Description: hNET Assay Procedure Protocol A: Inhibition of [^3H] NE Uptake into Cloned Human NE Transporters (MDCK Cells) (“hNET uptake”)
[^3H] […] Cells were seeded at 300,000/T75 flask, and split twice weekly.
All uptake experiments were performed in 96-well plates (Falcon Optilux, cat #353947) in a total volume of 250 μl/well. MDCK cells were plated at 50,000 cells/well. […] 25 μl of each test compound was subsequently added to plates in triplicate and incubated at 37° C. for 5 minutes. All test compounds were dissolved in 100% DMSO and diluted in 4% DMSO/H2O, and assayed using a 7-point dose response curve (1 nM-10 μM). Next, 25 μl of [^3H] NE (74.9 Ci/mmol, Perkin Elmer, Boston, Mass.) was added to all wells and incubated at 37° C. for an additional 5 minutes. Non-specific uptake was defined by 20 μM desipramine. The final concentrations of [^3H] NE was 16 nM, respectively. The reaction was terminated by aspiration and washed with ice cold 50 mM Tris (pH 7.4). […] 100 μl of Microscint-20 were added to each well (Packard, Perkin Elmer, Boston, Mass.), and the plates were counted using a TopCount (Perkin Elmer, Downer's Grove, Ill.) liquid scintillation counter. […]
IC50 values were calculated using a Prism® nonlinear regression program where % inhibition is plotted versus concentration of inhibitor.

Dopamine Transporter (hDAT), sequence (Q01959 whole entry): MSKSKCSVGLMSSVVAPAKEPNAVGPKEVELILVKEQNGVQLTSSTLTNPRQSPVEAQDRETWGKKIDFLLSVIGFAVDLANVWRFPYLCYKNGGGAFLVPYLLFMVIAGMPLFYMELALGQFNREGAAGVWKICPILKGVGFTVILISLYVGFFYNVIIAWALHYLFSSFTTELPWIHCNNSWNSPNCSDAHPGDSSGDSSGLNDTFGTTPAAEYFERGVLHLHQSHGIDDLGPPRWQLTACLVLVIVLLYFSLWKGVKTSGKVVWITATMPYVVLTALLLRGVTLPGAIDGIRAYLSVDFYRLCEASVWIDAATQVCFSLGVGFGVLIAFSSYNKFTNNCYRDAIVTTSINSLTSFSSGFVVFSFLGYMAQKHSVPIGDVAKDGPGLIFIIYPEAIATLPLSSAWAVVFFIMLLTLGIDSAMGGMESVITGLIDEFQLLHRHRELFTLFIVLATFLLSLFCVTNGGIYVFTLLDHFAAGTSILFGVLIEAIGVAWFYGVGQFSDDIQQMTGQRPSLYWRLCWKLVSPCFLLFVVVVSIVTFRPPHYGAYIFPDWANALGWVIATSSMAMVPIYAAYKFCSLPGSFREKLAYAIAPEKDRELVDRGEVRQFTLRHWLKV
hNET, sequence (P23975 whole entry): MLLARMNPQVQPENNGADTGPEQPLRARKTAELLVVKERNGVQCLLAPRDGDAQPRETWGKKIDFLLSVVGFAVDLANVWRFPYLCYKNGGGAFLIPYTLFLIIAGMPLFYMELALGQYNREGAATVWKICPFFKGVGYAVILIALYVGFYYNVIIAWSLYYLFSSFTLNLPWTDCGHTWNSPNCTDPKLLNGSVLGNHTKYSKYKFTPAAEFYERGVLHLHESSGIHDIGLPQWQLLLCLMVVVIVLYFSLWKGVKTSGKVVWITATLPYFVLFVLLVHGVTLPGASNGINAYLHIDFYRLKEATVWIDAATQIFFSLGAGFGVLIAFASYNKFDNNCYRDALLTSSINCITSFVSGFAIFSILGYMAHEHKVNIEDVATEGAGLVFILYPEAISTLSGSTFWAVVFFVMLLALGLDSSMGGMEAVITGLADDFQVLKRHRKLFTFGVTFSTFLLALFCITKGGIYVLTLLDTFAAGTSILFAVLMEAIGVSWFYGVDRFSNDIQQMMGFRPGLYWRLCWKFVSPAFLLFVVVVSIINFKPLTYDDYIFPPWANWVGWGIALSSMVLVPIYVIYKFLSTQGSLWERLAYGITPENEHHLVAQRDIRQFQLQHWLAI
T1 sequence (P23975 whole entry): as above

## O=S1(=O)N(CC[C@@H]2CNCCO2)c2ccccc2N1c1ccccc1 [Example 136, 1-{2-[(2R)-morpholin-2-yl]ethyl}-3-phenyl-1,3-dihydro-2,1,3-benzothiadiazole2,2-dioxide]
[1]
  half-life at 1 µM: 3 min
[2]
  IC50: 598 nM

## O=S1(=O)N(CC[C@H]2CNCCO2)c2ccccc2N1c1ccc(F)cc1F [Example 141, 1-(2,4-difluorophenyl)-3-{2-[(2S)-morpholin-2-yl]ethyl}-1,3-dihydro-2,1,3-benzothiadiazole2,2-dioxide]
[1]
  half-life at 1 µM: 2 min

## CN(C)CCOCCN1c2ccccc2N(c2ccc(F)cc2F)S1(=O)=O [Example 170, 2-{2-[3-(2,4-difluorophenyl)-2,2-dioxido-2,1,3-benzothiadiazol-1(3H)-yl]ethoxy}-N,N-dimethylethanamine hydrochloride]
hNET
  IC50: 207 nM

## O=S1(=O)N(CCC2CNCCO2)c2ccccc2N1c1ccc(F)cc1 (stereo not shown) [Example 137, 1-(4-fluorophenyl)-3-(2-morpholin-2-ylethyl)-1,3-dihydro-2,1,3-benzothiadiazole 2,2-dioxide]
[1]
  half-life at 1 µM: 9 min

## O=S1(=O)N(CCCCN2CCOCC2)c2ccccc2N1c1ccc(Cl)cc1 [Example 180, 1-(4-chlorophenyl)-3-(4-morpholin-4-ylbutyl)-1,3-dihydro-2,1,3-benzothiadiazole2,2-dioxide]
[3]
  IC50: 1760 nM

## O=S1(=O)N(CC[C@H]2CNCCO2)c2ccccc2N1c1ccccc1F [Example 148, 1-(2-fluorophenyl)-3-{2-[(2S)-morpholin-2-yl]ethyl}-1,3-dihydro-2,1,3-benzothiadiazole2,2-dioxide]
[1]
  half-life at 1 µM: 4 min
[2]
  IC50: 1400 nM

## NCC1CCN(CCN2c3ccccc3N(c3ccccc3)S2(=O)=O)C1 (stereo not shown) [Example 105, 1-{1-[2-(2,2-dioxido-3-phenyl-2,1,3-benzothiadiazol-1(3H)-yl)ethyl]pyrrolidin-3-yl}methanamine dihydrochloride]
hNET
  IC50: 289 nM

## O=S1(=O)N(CC[C@H]2CNCCO2)c2ccccc2N1c1ccccc1 [Example 135, 1-{2-[(2S)-morpholin-2-yl]ethyl}-3-phenyl-1,3-dihydro-2,1,3-benzothiadiazole2,2-dioxide]
[1]
  half-life at 1 µM: 5 min
[2]
  IC50: 479 nM

## COc1cccc(N2c3ccccc3N(CC[C@H]3CNCCO3)S2(=O)=O)c1 [Example 146, 1-(3-methoxyphenyl)-3-{2-[(2S)-morpholin-2-yl]ethyl}-1,3-dihydro-2,1,3-benzothiadiazole2,2-dioxide]
[1]
  half-life at 1 µM: 5 min

## O=S1(=O)N(CC[C@H]2CNCCO2)c2ccccc2N1c1c(F)cccc1F [Example 150, 1-(2,6-difluorophenyl)-3-{2-[(2S)-morpholin-2-yl]ethyl}-1,3-dihydro-2,1,3-benzothiadiazole2,2-dioxide]
[1]
  half-life at 1 µM: 3 min

## O=S1(=O)N(CC[C@@H]2CNCCO2)c2ccccc2N1c1ccccc1F [Example 149, 1-(2-fluorophenyl)-3-{2-[(2R)-morpholin-2-yl]ethyl}-1,3-dihydro-2,1,3-benzothiadiazole2,2-dioxide]
[1]
  half-life at 1 µM: 5 min
[2]
  IC50: 2190 nM

## O=S1(=O)N(CC[C@@H]2CNCCO2)c2ccccc2N1c1ccc(F)cc1 [Example 139, 1-(4-fluorophenyl)-3-{2-[(2R)-morpholin-2-yl]ethyl}-1,3-dihydro-2,1,3-benzothiadiazole2,2-dioxide]
[1]
  half-life at 1 µM: 10 min
